Data taken from patent US20120129838A1, “Composition for Preventing and Treating Alopecia Disorder Containing Morgalanthamine Compounds as an Active Ingredient” (The Industry & Academic Cooperation in Chungnam National …, priority 2009, published 2012).
Structures can show the parent of a compound that is named as a salt.

Columns and labels:
[1] = system: rat vibrissa follicles; experiment: Growth of rat vibrissa follicles in organ culture; conditions: time point of 21 days, isolated Wistar rat vibrissa follicles
Experimental: In order to measure an effect of the norgalanthamine compound prepared in Experimental Example 1 on hair growth, the following experiment was performed using a method described in the publication (Philpott M P, et al., Cyclical changes in rat vibrissa follicles maintained in vitro. J Invest Dermatol. 115, pp. 1152-1155, 2000),
A 3-week-old male Wistar rat (Japan SLC, Hamamatsu, Japan) was purchased from Central Lab. Animal Inc. (Korea), anesthetized with ethyl ether, and killed by cervical vertebral dislocation. The left and right mystacial pads of the rat were extracted and put into an E/P buffer ((EBSS, Earle's balanced salts solution, Sigma Mo., USA)+(PBS, phosphate-buffered saline, Sigma Mo., USA)) supplemented with 100 units/ml penicillin and 100 μg/ml streptomycin (Gibco Inc, NY, USA). Vibrissa follicles were carefully isolated under a steroscopic dissecting microscope. Until the hair follicles were completely isolated, the hair follicles were put into a Petri dish containing an E/P buffer, and incubated at 37° C. for 1 hour in a 5% CO2 pyrostat. 500 μl of William E medium (Gibco Inc, NY, USA) containing 2 mM. L-glutamine (Gibco Inc, NY, USA), 10 μg/ml insulin (Sigma Mo., USA), 50 nM hydrocortisone (Sigma Mo., USA) and 100 units/ml penicillin-100 μg/ml streptomycin was put into each well of a 24-well plate, and one hair follicle was added to each well, and incubated at […] in a 5% CO2 pyrostat. 10 to 12 hair follicles were used in each experimental group, and a medium was changed with a fresh medium every 3 days during the incubation. […]
Photographs of shapes of vibrissa follicles were taken using a microscope (Olympus, Japan). Lengths of hair follicles were measured at time points of 0, 7, 14 and 21 days using an image analyzer (DP controller; Olympus, Japan). An average variation in lengths of the hair follicles was calculated, and a growth level was measured by comparing the average variation with an average length of the control.

[2] = system: rat vibrissa immortalized dermal papilla cell line; experiment: Proliferation of dermal papilla cells (MTT assay); format: cell-based; conditions: incubated for 4 days, absorbance at 540 nm
Experimental: A rat vibrissa immortalized dermal papilla cell line obtained by immortalizing dermal papilla cells isolated from rat whiskers (Filsell W, et al., Transfection of rat dermal papilla cells with a gene encoding a temperature-sensitive polyomavirus large T antigen generates cell lines a differentiated phenotype., J. Cell Sci, 107, pp. 1761-1772, 1994) was incubated at 37° C. in a DMEM (Hyclone Inc, USA) medium containing […] (Gibco Inc, NY, USA) and 10% heat-inactivated fetal bovine serum (FBS, Gibco Inc, NY, USA) using a 5% CO2 pyrostat, and subcultured every 3 days.
The cultured dermal papilla cells (1.0×10^4 cells/ml) were put into each well of a 96-well plate, and incubated for 24 hours. Then, a used culture solution was changed with a serum-free DMEM medium, and cultured again for 24 hours. Thereafter, the cultured solution was treated with 0.01 and 0.1 μM concentrations of the norgalanthamine compound of Experimental Example 1, and a 1 μM concentration of a positive control, minoxidil sulfate (M.S., Sigma, Mo., USA), respectively. The resulting mixture was incubated for 4 days, 50 μl of MTT (Sigma, Mo., USA) was added thereto, and the mixture was reacted for 4 hours. A supernatant was removed, and a pellet was dissolved in 200 μl of DMSO, and then measured for absorbance at 540 nm using a microplate reader (Amersham Pharmacia Biotech, NY, USA). An average absorbance value of each sample group was calculated, and a level of the hair proliferation was examined by comparing the average absorbance value with an absorbance value of the control.

Row | SMILES | growth of hair fiber compared to that of the control (100%) ([1]; 1 uM, positive control) [%] | proliferation of dermal papilla cells compared to the control (100%) ([2]; 1 μM, positive control) [%] | growth of hair fiber compared to that of the control (100%) ([1]; 0.01 uM) [%] | growth of hair fiber compared to that of the control (100%) ([1]; 0.1 uM) [%] | proliferation of dermal papilla cells compared to the control (100%) ([2]; 0.01 μM) [%] | proliferation of dermal papilla cells compared to the control (100%) ([2]; 0.1 μM) [%]
1 | Nc1cc(N2CCCCC2)nc(N)[n+]1OS(=O)(=O)[O-] [minoxidil sulfate, reference compound] | 135.03±38.8 | 114.9±4.5 | – | – | – | –
2 | COc1ccc2c3c1OC1C[C@@H](O)C=C[C@@]31CCNC2 (stereo partly drawn) [norgalanthamine] | – | – | 128.7±13.8 | 139.2±10.3 | 114.0±4.3 | 106.2±5.6
